Measured values: PubChem BioAssay (NCI)
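1) Cells in 96-well plates. 2) Compound, 48 h, 5 concentrations. 3) Linear interpolation between surrounding doses. 4) Unreached endpoint = highest concentration. GI50 marks 50% less growth. Definition used: TGI = concentration required for complete inhibition of growth.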

What was measured:
Test in all cases: NCI-60 cell line screen, 48 h
U251 CNS = system: U251 CNS
HT29 colon = system: HT29 colon
HCC-2998 colon = system: HCC-2998 colon
RXF 393 renal = system: RXF 393 renal
NCI-H522 lung = system: NCI-H522 lung
MOLT-4 leukemia = system: MOLT-4 leukemia
SF-295 CNS = system: SF-295 CNS
SF-539 CNS = system: SF-539 CNS
M14 melanoma = system: M14 melanoma
PC-3 prostate = system: PC-3 prostate

Structure (SMILES)	TGI (U251 CNS) [µM]	TGI (HT29 colon) [µM]	TGI (HCC-2998 colon) [µM]	TGI (RXF 393 renal) [µM]	TGI (NCI-H522 lung) [µM]	TGI (MOLT-4 leukemia) [µM]	TGI (SF-295 CNS) [µM]	TGI (SF-539 CNS) [µM]	TGI (M14 melanoma) [µM]	TGI (PC-3 prostate) [µM]	GI50 (U251 CNS) [µM]	GI50 (HT29 colon) [µM]	GI50 (HCC-2998 colon) [µM]	GI50 (RXF 393 renal) [µM]	GI50 (NCI-H522 lung) [µM]	GI50 (MOLT-4 leukemia) [µM]	GI50 (SF-295 CNS) [µM]	GI50 (SF-539 CNS) [µM]	GI50 (M14 melanoma) [µM]	GI50 (PC-3 prostate) [µM]
NNC(=O)/C(=C/c1ccc(Cl)cc1Cl)NC(=O)c1ccccc1	> 100	> 100	> 100	> 100	> 100	> 100	> 100	> 100	> 100	–	–	–	–	–	–	–	–	–	–	–
O=C1CC(c2ccc(O)cc2)C2(O1)C(=O)OC(C(O)CO)C2O (configuration not stated)	> 100	> 100	–	> 100	–	> 100	> 100	> 100	> 100	> 100	–	–	–	–	–	–	–	–	–	–
Cc1cc(N(CCC#N)CCC#N)ccc1N=Nc1cccc(C(=O)O)c1	> 100	> 100	> 100	> 100	> 100	> 100	> 100	> 100	> 100	–	–	–	–	–	–	–	–	–	–	–
CC1=C(C)C(=O)c2c(cc3ccccn23)C1=O	27.2	36.6	29.9	27.9	–	> 100	31.8	37.1	28.1	–	–	–	–	–	–	–	–	–	–	–
O=C(CN1CCOCC1)Nc1nc(-c2ccc(Cl)cc2)cs1	> 100	> 100	> 100	–	–	42.6	> 100	> 100	> 100	–	–	–	–	–	–	–	–	–	–	–
C1C[OH+]CC[OH+]CCNCC[OH+]CC[OH+]CCN1.N.[Cl-].[Pt+4]	> 100	> 100	32.6	12.3	48.1	36.3	19.7	19.6	23.6	–	7.19	22.1	13.5	2.49	12.9	3.89	2.96	3.95	5.31	–
Cc1ccc(NC(=O)C(=O)C(C#N)c2ccccc2C)cc1C (configuration not stated)	> 100	> 100	> 82	> 100	> 100	> 100	> 100	> 100	> 100	–	–	–	–	–	–	–	–	–	–	–
CSc1ccc(C2OC(=O)c3ccccc32)c2ccccc12 (configuration not stated)	> 100	> 100	> 100	> 100	> 100	> 100	> 100	> 100	> 100	–	–	–	–	–	–	–	–	–	–	–
CC1=Nc2ccccc2S/C1=C(/C)NNC(=O)C(N)=O	> 100	> 100	> 100	> 100	> 100	> 100	> 100	> 100	> 100	–	–	–	–	–	–	–	–	–	–	–
CN(C)C(=O)OC(Cn1cncn1)c1ccc(Cl)cc1Cl (configuration not stated)	> 100	> 100	> 100	> 100	> 100	> 100	> 100	> 100	> 100	–	–	–	–	–	–	–	–	–	–	–
C/C(=N\NS(=O)(=O)c1ccccc1)c1ccc(Cl)c(Cl)c1	> 100	> 100	> 100	> 100	–	> 100	> 100	> 100	> 100	–	–	–	–	–	–	–	–	–	–	–
Cc1ccc(N=Cc2ccc3c(c2)OCO3)cc1C	–	> 100	–	> 100	> 100	> 100	> 100	> 100	> 100	–	–	–	–	–	–	–	–	–	–	–
Oc1cccc2ccc(N/N=C/c3cc(CN4CCCCC4)c(O)c4ncccc34)nc12	1.28	1.46	1.76	–	1.21	3.82	3.07	2.68	–	1.86	0.0329	0.324	0.0499	–	0.0314	0.0597	0.0686	0.0481	–	0.0417
CC1=C(Oc2ccccc2)C(CCC(=O)O)c2c(O)cc(Cl)c(O)c21 (configuration not stated)	> 100	–	> 100	> 100	> 100	> 100	> 100	> 100	> 100	–	–	–	–	–	–	–	–	–	–	–
O=C(N/C(=C\c1ccc2c(c1)OCO2)c1nc2ccccc2[nH]1)c1ccccc1	> 100	–	> 87.3	81.5	61	56.9	> 100	82.7	> 90.9	–	–	–	–	–	–	–	–	–	–	–
COc1ccc(OC)c(NC(=O)C2=C(C)NC(C)=C(C(=O)Nc3cc(OC)ccc3OC)C2c2ccccc2)c1	> 100	> 100	> 100	> 100	> 100	> 100	> 100	> 100	> 100	–	–	–	–	–	–	–	–	–	–	–
CCCCCCCCN=C(N)c1ccc(N2CCN(c3ccc(C(N)=NCCCCCCCC)cc3)CC2)cc1	6.33	13.6	8.79	4.49	> 50	3.4	2.79	–	6.68	> 50	1.45	1.61	2.06	1.13	2.27	0.724	1.1	–	1.76	22.7
CC1(C)C(=NNC(=O)C[N+](C)(C)C)C(C)(C)C1=NNC(=O)C[N+](C)(C)C	> 100	> 100	> 100	> 100	> 100	> 100	> 100	> 100	> 100	–	–	–	–	–	–	–	–	–	–	–
O=[N+]([O-])C1C2C=CC(C2)[C@H]1c1ccco1 (some centres not stated)	> 100	9.22	> 100	> 100	> 100	> 100	> 100	> 100	> 100	–	–	–	–	–	–	–	–	–	–	–
COc1ccc(-c2n/c(=C\c3c(O)[nH]c4ccc(OC)cc34)cc3c2=Nc2ccccc2-3)cc1	–	–	10.1	–	–	5.27	24.1	3.4	3.59	> 100	–	–	2.93	–	–	2.41	3.9	1.85	1.98	22.1
CC1C=C(OC(=O)c2ccccc2)C(=O)C(n2cc(F)c(=O)[nH]c2=O)O1 (configuration not stated)	> 100	> 100	> 100	–	> 100	> 100	> 100	> 100	> 100	–	–	–	–	–	–	–	–	–	–	–
